From PubChem BioAssay AID1918999 (Molecular Pharmacology Branch, DTP, NCI, 2023)
Where “and” joins values, the source holds several entries; their conditions need not be identical. Identical values can stand only once.

System: 556581-035-R-J1-PDC complex spheroid growth
Test: Anticancer human tumor 556581-035-R-J1-PDC patient-derived ovarian carcinoma cell line growth inhibition [AhR]
Conditions: for viability, T/C: stronger effect = lower value
How it was run: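 Agents were dosed in half-log steps down from roughly clinical Cmax, or from 10 microM where Cmax was unknown, alone and with AhR antagonists. Read-out: percent test/control growth of tumor spheroids containing HUVEC and MSC stromal cells.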

[1] = curve of first compound, second compound 0.1 µM
[2] = curve of first compound, second compound 0.316 µM
[3] = curve of first compound, second compound 1 µM
[4] = curve of first compound, second compound 3.16 µM
[5] = curve of first compound, second compound 10 µM
[6] = second compound 0.1 µM, first compound 0.00316 µM
[7] = second compound 0.1 µM, first compound 0.01 µM
[8] = second compound 0.1 µM, first compound 0.0316 µM
[9] = second compound 0.1 µM, first compound 0.1 µM
[10] = second compound 0.1 µM, first compound 0.316 µM
[11] = second compound 0.1 µM, first compound 1 µM
[12] = second compound 0.316 µM, first compound 0.00316 µM
[13] = second compound 0.316 µM, first compound 0.01 µM
[14] = second compound 0.316 µM, first compound 0.0316 µM
[15] = second compound 0.316 µM, first compound 0.1 µM
[16] = second compound 0.316 µM, first compound 0.316 µM
[17] = second compound 0.316 µM, first compound 1 µM
[18] = second compound 1 µM, first compound 0.00316 µM
[19] = second compound 1 µM, first compound 0.01 µM
[20] = second compound 1 µM, first compound 0.0316 µM
[21] = second compound 1 µM, first compound 0.1 µM
[22] = second compound 1 µM, first compound 0.316 µM
[23] = second compound 1 µM, first compound 1 µM
[24] = second compound 3.16 µM, first compound 0.00316 µM
[25] = second compound 3.16 µM, first compound 0.01 µM
[26] = second compound 3.16 µM, first compound 0.0316 µM
[27] = second compound 3.16 µM, first compound 0.1 µM
[28] = second compound 3.16 µM, first compound 0.316 µM
[29] = second compound 3.16 µM, first compound 1 µM
[30] = second compound 10 µM, first compound 0.00316 µM
[31] = second compound 10 µM, first compound 0.01 µM
[32] = second compound 10 µM, first compound 0.0316 µM
[33] = second compound 10 µM, first compound 0.1 µM
[34] = second compound 10 µM, first compound 0.316 µM
[35] = second compound 10 µM, first compound 1 µM
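For viability, T/C in this document: compound exposure lasted 7 days; 100% = DMSO vehicle control growth.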

Row | SMILES | IC50 [1] [nM] | IC50 [2] [nM] | IC50 [3] [nM] | IC50 [4] [nM] | IC50 [5] [nM] | viability, T/C [8] [%] | viability, T/C [9] [%] | viability, T/C [10] [%] | viability, T/C [11] [%] | viability, T/C [14] [%] | viability, T/C [15] [%] | viability, T/C [16] [%] | viability, T/C [17] [%] | viability, T/C [20] [%] | viability, T/C [21] [%] | viability, T/C [22] [%] | viability, T/C [23] [%] | viability, T/C [26] [%] | viability, T/C [27] [%] | viability, T/C [28] [%] | further results
1 | CC1COCCN1c1cc(-c2ccnn2C)c2ccnc(-c3ccn[nH]3)c2n1 (configuration not stated) + CC(CO)NC(=O)c1cc(-c2ccc(Cl)cc2)nn(-c2cnn(C)c2)c1=O | 474 | 690 | 944 | 398 | 295 | 108 | 79.7 | 52.4 | 47.1 | 104 | 89.3 | 56.3 | 47 | 106 | 84.4 | 64.6 | 48.5 | 114 | 80.7 | 53.6 | viability, T/C [6]: 106%; viability, T/C [7]: 109%; viability, T/C [12]: 107%; viability, T/C [13]: 114%; viability, T/C [18]: 118%; viability, T/C [19]: 120%; viability, T/C [24]: 114%; viability, T/C [25]: 130%; viability, T/C [29]: 43.2%; viability, T/C [30]: 107%; viability, T/C [31]: 119%; viability, T/C [32]: 103%; viability, T/C [33]: 68.6%; viability, T/C [34]: 50.5%; viability, T/C [35]: 44.8%
2 | Nc1ncn(C2CC(O)C(CO)O2)c(=O)n1 (configuration not stated) + Cc1cncc(-c2nc(NCCc3c[nH]c4ccccc34)c3ncn(C(C)C)c3n2)c1 | > 1000 | > 1000 | > 1000 | > 1000 | > 1000 | 106 | 89 | 84.8 | 77.4 | 90.7 | 87 | 93.1 | 85.6 | 104 | 110 | 92.6 | 82.2 | 93.6 | 94.7 | 88.3 | viability, T/C [6]: 97.2%; viability, T/C [7]: 95.1%; viability, T/C [12]: 102%; viability, T/C [13]: 93.6%; viability, T/C [18]: 91.4%; viability, T/C [19]: 105%; viability, T/C [24]: 98.2%; viability, T/C [25]: 95.5%; viability, T/C [29]: 90.2%; viability, T/C [30]: 83.7%; viability, T/C [31]: 78.5%; viability, T/C [32]: 81.6%; viability, T/C [33]: 82%; viability, T/C [34]: 81.8%; viability, T/C [35]: 83.6%
3 | Nc1ncn(C2CC(O)C(CO)O2)c(=O)n1 (configuration not stated) | – | – | – | – | – | – | – | – | – | – | – | – | – | – | – | – | – | – | – | – | viability, T/C (compound 0.00316 µM): 90.6% and 101% and 102%; viability, T/C (compound 0.01 µM): 101% (2×) and 105%; viability, T/C (compound 0.0316 µM): 91.6% and 90.4% and 90.8%; viability, T/C (compound 0.1 µM): 95.1% and 95.6% and 86.2%; viability, T/C (compound 0.316 µM): 95.8% and 81.7% and 82.5%; viability, T/C (compound 1 µM): 83.9% and 75.5% and 76.9%; IC50 (curve of compound): > 1000 nM
4 | COc1cccc2c1C(=O)c1c(O)c3c(c(O)c1C2=O)CC(O)(C(=O)CO)CC3OC1CC(N)C(O)C(C)O1 (configuration not stated) + Cc1ccccc1N=Nc1ccc(NC(=O)c2ccnn2C)c(C)c1 | 423 | 416 | 519 | 489 | 493 | 83.7 | 78 | 60.2 | 20.7 | 82.7 | 77.9 | 59.9 | 19.2 | 85.7 | 93.8 | 70.9 | 21.4 | 83.2 | 79.9 | 68.3 | viability, T/C (second compound 0.1 µM, first compound 3.16 µM): 2.13%; viability, T/C (second compound 0.1 µM, first compound 10 µM): 2.2%; viability, T/C (second compound 0.316 µM, first compound 3.16 µM): 3.1%; viability, T/C (second compound 0.316 µM, first compound 10 µM): 3.13%; viability, T/C (second compound 1 µM, first compound 3.16 µM): 3.42%; viability, T/C (second compound 1 µM, first compound 10 µM): 2.49%; viability, T/C [29]: 20.1%; viability, T/C (second compound 3.16 µM, first compound 3.16 µM): 4.16%; viability, T/C (second compound 3.16 µM, first compound 10 µM): 1.64%; viability, T/C [32]: 79.2%; viability, T/C [33]: 85.7%; viability, T/C [34]: 70.2%; viability, T/C [35]: 17.2%; viability, T/C (second compound 10 µM, first compound 3.16 µM): 2.04%; viability, T/C (second compound 10 µM, first compound 10 µM): 2.28%
